Read-outs that look alike come from different tables or passages of the source.
Target: T1, human GluN1/GluN2B NMDA receptors (Homo sapiens, UniProt Q13224)
T1 construct: expressed in transfected cells
Experiment: Cell-based calcium flux (FLIPR) assay on cloned human NR1/NR2B ion channels expressed in mammalian cells (standard and HTS buffer variants);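 also: stable Tet-On inducible cell line, Ca2+ influx triggered by glutamate at about EC40 plus 10 µM glycine, fluorescent dye read-out over 5 min, normalized to control wells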
Details: human GluN1/GluN2B

[1] = HTS assay buffer (1.5 mM MgCl2 in dye loading buffer; 150 mM NaCl, 3 mM KCl in assay buffer), read-out: NR2B IC50 (μM) HTS assay
[2] = standard assay buffer (0.5 mM MgCl2 in dye loading buffer; 137 mM NaCl, 4 mM KCl in assay buffer), read-out: NR2B IC50 (μM) standard assay

T1 sequence (Q13224 27-1484, other chains not shown): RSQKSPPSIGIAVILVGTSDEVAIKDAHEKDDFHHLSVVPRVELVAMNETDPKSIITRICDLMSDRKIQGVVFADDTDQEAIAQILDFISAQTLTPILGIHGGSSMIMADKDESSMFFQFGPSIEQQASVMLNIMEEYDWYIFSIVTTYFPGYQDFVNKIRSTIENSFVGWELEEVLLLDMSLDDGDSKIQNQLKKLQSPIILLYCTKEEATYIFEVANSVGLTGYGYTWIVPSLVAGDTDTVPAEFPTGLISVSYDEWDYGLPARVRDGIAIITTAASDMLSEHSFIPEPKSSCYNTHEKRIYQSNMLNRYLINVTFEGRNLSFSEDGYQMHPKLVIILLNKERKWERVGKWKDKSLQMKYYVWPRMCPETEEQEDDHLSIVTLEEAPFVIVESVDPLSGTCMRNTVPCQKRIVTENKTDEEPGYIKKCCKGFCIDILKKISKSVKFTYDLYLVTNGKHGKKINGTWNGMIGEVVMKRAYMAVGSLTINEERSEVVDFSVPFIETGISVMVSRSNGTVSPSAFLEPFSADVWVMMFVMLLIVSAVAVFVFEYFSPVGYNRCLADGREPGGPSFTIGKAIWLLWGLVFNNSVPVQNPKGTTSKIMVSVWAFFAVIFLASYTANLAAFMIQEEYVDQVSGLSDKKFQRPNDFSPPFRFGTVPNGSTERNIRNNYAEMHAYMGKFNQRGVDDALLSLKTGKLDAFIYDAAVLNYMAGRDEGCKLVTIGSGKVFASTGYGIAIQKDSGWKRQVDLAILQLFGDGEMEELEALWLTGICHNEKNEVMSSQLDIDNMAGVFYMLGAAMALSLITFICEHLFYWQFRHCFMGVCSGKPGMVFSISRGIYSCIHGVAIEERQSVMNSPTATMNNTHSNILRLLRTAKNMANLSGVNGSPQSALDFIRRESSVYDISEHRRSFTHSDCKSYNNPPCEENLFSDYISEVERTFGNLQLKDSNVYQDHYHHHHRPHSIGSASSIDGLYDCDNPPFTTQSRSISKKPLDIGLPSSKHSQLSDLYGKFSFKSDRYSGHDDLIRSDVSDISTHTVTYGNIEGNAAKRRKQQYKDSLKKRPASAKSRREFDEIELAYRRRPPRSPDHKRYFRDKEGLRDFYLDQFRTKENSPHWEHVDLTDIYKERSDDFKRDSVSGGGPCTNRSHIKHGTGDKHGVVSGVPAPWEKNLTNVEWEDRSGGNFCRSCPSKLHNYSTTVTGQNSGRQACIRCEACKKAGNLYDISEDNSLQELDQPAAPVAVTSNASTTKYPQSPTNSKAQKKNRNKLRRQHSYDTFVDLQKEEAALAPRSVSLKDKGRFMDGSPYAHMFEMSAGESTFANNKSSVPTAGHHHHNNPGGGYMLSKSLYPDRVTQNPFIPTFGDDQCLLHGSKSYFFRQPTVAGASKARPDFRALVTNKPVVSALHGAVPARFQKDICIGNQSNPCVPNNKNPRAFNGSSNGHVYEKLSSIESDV

SMILES | IC50 [1] [µM] | IC50 [2] [µM]
Cc1cc(C)cc(-c2cnc3[nH]c(=O)n(Cc4cccc(F)c4)c3c2)c1 [Example 495, 6-(3,5-Dimethylphenyl)-1-[(3-fluorophenyl)methyl]-3H-imidazo[4,5-b]pyridin-2-one] | 2.81 | 
COc1ccc(-c2cnc3[nH]c(=O)n(Cc4cccc(F)c4)c3c2)c(OC)c1 [Example 496, 6-(2,4-Dimethoxyphenyl)-1-[(3-fluorophenyl)methyl]-3H-imidazo[4,5-b]pyridin-2-one] | 2.79 | 
CCOc1ccccc1-c1cnc2[nH]c(=O)n(Cc3cccc(F)c3)c2c1 [Example 497, 6-(2-Ethoxyphenyl)-1-[(3-fluorophenyl)methyl]-3H-imidazo[4,5-b]pyridin-2-one] | 1.95 | 
COc1ccc(-c2cnc3[nH]c(=O)n(Cc4cccc(F)c4)c3c2)cc1C [Example 498, 1-[(3-Fluorophenyl)methyl]-6-(4-methoxy-3-methyl-phenyl)-3H-imidazo[4,5-b]pyridin-2-one] |  | 2.22
COc1cc(F)ccc1-c1cnc2[nH]c(=O)n(Cc3cccc(F)c3)c2c1 [Example 499, 6-(4-Fluoro-2-methoxy-phenyl)-1-[(3-fluorophenyl)methyl]-3H-imidazo[4,5-b]pyridin-2-one] |  | 0.09
CN(C)c1cccc(-c2cnc3[nH]c(=O)n(Cc4cccc(F)c4)c3c2)c1 [Example 500, 6-[3-(Dimethylamino)phenyl]-1-[(3-fluorophenyl)methyl]-3H-imidazo[4,5-b]pyridin-2-one] |  | 6.08
COc1cc(F)ccc1-c1cnc2[nH]c(=O)n(Cc3ccc(F)cc3)c2c1 [Example 501, 6-(4-Fluoro-2-methoxy-phenyl)-1-[(4-fluorophenyl)methyl]-3H-imidazo[4,5-b]pyridin-2-one] | 0.79 | 
O=c1[nH]c2ncc(-c3ccc(F)c(Cl)c3)cc2n1Cc1ccc(F)cc1 [Example 502, 6-(3-Chloro-4-fluoro-phenyl)-1-[(4-fluorophenyl)methyl]-3H-imidazo[4,5-b]pyridin-2-one] | 4.86 | 
CCOc1ccccc1-c1cnc2[nH]c(=O)n(Cc3ccccc3F)c2c1 [Example 503, 6-(2-Ethoxyphenyl)-1-[(2-fluorophenyl)methyl]-3H-imidazo[4,5-b]pyridin-2-one] | 5.49 | 
O=c1[nH]c2ncc(-c3cc(F)cc(F)c3)cc2n1Cc1cccc(Cl)c1 [Example 504, 1-[(3-Chlorophenyl)methyl]-6-(3,5-difluorophenyl)-3H-imidazo[4,5-b]pyridin-2-one] | 4.13 | 
COc1cccc(Cn2c(=O)[nH]c3ncc(-c4ccc(F)cc4OC)cc32)c1 [Example 505, 6-(4-Fluoro-2-methoxy-phenyl)-1-[(3-methoxyphenyl)methyl]-3H-imidazo[4,5-b]pyridin-2-one] |  | 1.64
COc1cccc(Cn2c(=O)[nH]c3ncc(-c4cccnc4)cc32)c1 [Example 506, 1-[(3-Methoxyphenyl)methyl]-6-(3-pyridyl)-3H-imidazo[4,5-b]pyridin-2-one] | > 29 | 
COc1cccc(Cn2c(=O)[nH]c3ncc(-c4cc(C)cs4)cc32)c1 [Example 507, 1-[(3-Methoxyphenyl)methyl]-6-(4-methyl-2-thienyl)-3H-imidazo[4,5-b]pyridin-2-one] | 8.1 | 
COc1ccc(Cn2c(=O)[nH]c3ncc(-c4cc(F)cc(F)c4)cc32)cc1 [Example 508, 6-(3,5-Difluorophenyl)-1-[(4-methoxyphenyl)methyl]-3H-imidazo[4,5-b]pyridin-2-one] | 0.463 | 
COc1cc(Cn2c(=O)[nH]c3ncc(-c4c(F)cccc4OC)cc32)cc(OC)c1 [Example 509, 1-[(3,5-Dimethoxyphenyl)methyl]-6-(2-fluoro-6-methoxy-phenyl)-3H-imidazo[4,5-b]pyridin-2-one] | 0.884 | 
COc1cc(Cn2c(=O)[nH]c3ncc(-c4cccc(C(F)(F)F)c4)cc32)cc(OC)c1 [Example 510, 1-[(3,5-Dimethoxyphenyl)methyl]-6-[3-(trifluoromethyl)phenyl]-3H-imidazo[4,5-b]pyridin-2-one] | 17.4 | 
CC(C)c1ccc(Cn2c(=O)[nH]c3ncc(-c4ccc(Cl)cc4)cc32)cc1 [Example 511, 6-(4-Chlorophenyl)-1-[(4-isopropylphenyl)methyl]-3H-imidazo[4,5-b]pyridin-2-one] | > 29 | 
COc1ccnc(Cn2c(=O)[nH]c3ncc(-c4ccc(C(C)(C)C)cc4)cc32)c1OC [Example 512, 6-(4-tert-Butylphenyl)-1-[(3,4-dimethoxy-2-pyridyl)methyl]-3H-imidazo[4,5-b]pyridin-2-one] | > 29 | 
Cc1noc(C)c1Cn1c(=O)[nH]c2ncc(-c3cccc(C#N)c3)cc21 [Example 513, 3-[1-[(3,5-Dimethylisoxazol-4-yl)methyl]-2-oxo-3H-imidazo[4,5-b]pyridin-6-yl]benzonitrile] | > 29 | 
CCOc1ccc(F)cc1-c1cnc2[nH]c(=O)n(Cc3c(C)noc3C)c2c1 [Example 514, 1-[(3,5-Dimethylisoxazol-4-yl)methyl]-6-(2-ethoxy-5-fluoro-phenyl)-3H-imidazo[4,5-b]pyridin-2-one] | > 29 | 
COc1ccc(-c2cnc3[nH]c(=O)n(Cc4cc(C)on4)c3c2)cc1C [Example 515, 6-(4-Methoxy-3-methyl-phenyl)-1-[(5-methylisoxazol-3-yl)methyl]-3H-imidazo[4,5-b]pyridin-2-one] | 0.156 | 
Cc1cc(C)cc(-c2cnc3[nH]c(=O)n(Cc4cc(C)on4)c3c2)c1 [Example 516, 6-(3,5-Dimethylphenyl)-1-[(5-methylisoxazol-3-yl)methyl]-3H-imidazo[4,5-b]pyridin-2-one] |  | 0.491
CCOc1ccccc1-c1cnc2[nH]c(=O)n(Cc3cc(C)on3)c2c1 [Example 517, 6-(2-Ethoxyphenyl)-1-[(5-methylisoxazol-3-yl)methyl]-3H-imidazo[4,5-b]pyridin-2-one] |  | 0.709

Continued, values first:

IC50 [1] [µM] | IC50 [2] [µM] | SMILES
 | 0.808 | COc1ccc(-c2cnc3[nH]c(=O)n(Cc4cc(C)on4)c3c2)c(OC)c1 [Example 518, 6-(2,4-Dimethoxyphenyl)-1-[(5-methylisoxazol-3-yl)methyl]-3H-imidazo[4,5-b]pyridin-2-one]
 | 0.139 | COc1ccc(-c2cnc3[nH]c(=O)n(Cc4cc(C)on4)c3c2)cc1F [Example 519, 6-(3-Fluoro-4-methoxy-phenyl)-1-[(5-methylisoxazol-3-yl)methyl]-3H-imidazo[4,5-b]pyridin-2-one]
 | 0.019 | COc1cc(F)ccc1-c1cnc2[nH]c(=O)n(Cc3cc(C)on3)c2c1 [Example 520, 6-(4-Fluoro-2-methoxy-phenyl)-1-[(5-methylisoxazol-3-yl)methyl]-3H-imidazo[4,5-b]pyridin-2-one]
 | 0.132 | CCOc1ccc(F)cc1-c1cnc2[nH]c(=O)n(Cc3cc(C)on3)c2c1 [Example 521, 6-(2-Ethoxy-5-fluoro-phenyl)-1-[(5-methylisoxazol-3-yl)methyl]-3H-imidazo[4,5-b]pyridin-2-one]
 | 0.034 | Cc1cc(Cn2c(=O)[nH]c3ncc(-c4ccc(F)cc4C)cc32)no1 [Example 522, 6-(4-Fluoro-2-methyl-phenyl)-1-[(5-methylisoxazol-3-yl)methyl]-3H-imidazo[4,5-b]pyridin-2-one]
 | 0.133 | Cc1cc(Cn2c(=O)[nH]c3ncc(-c4cc(F)cc(F)c4)cc32)no1 [Example 523, 6-(3,5-Difluorophenyl)-1-[(5-methylisoxazol-3-yl)methyl]-3H-imidazo[4,5-b]pyridin-2-one]
 | 0.862 | Cn1c(=O)n(CC(=O)NCCCCl)c2cc(-c3ccc(C(F)(F)F)s3)cnc21 [Example 532, N-(3-Chloropropyl)-2-[3-methyl-2-oxo-6-[5-(trifluoromethyl)-2-thienyl]imidazo[4,5-b]pyridin-1-yl]acetamide]
 | 0.025 | CN(C)C(=O)Cn1c(=O)n(C)c2ncc(-c3ccc(F)c(C(F)F)c3)cc21 [Example 533, 2-[6-[3-(Difluoromethyl)-4-fluoro-phenyl]-3-methyl-2-oxo-imidazo[4,5-b]pyridin-1-yl]-N,N-dimethyl-acetamide]
 | 0.036 | O=C(Cn1c(=O)n(CF)c2ncc(-c3ccc(C(F)(F)F)s3)cc21)N1CCC1 [Example 534, 1-[2-(Azetidin-1-yl)-2-oxo-ethyl]-3-(fluoromethyl)-6-[5-(trifluoromethyl)-2-thienyl]imidazo[4,5-b]pyridin-2-one]
 | 0.106 | O=C(Cn1c(=O)n(CCF)c2ncc(-c3ccc(C(F)(F)F)s3)cc21)N1CCC1 [Example 535, 1-[2-(Azetidin-1-yl)-2-oxo-ethyl]-3-(2-fluoroethyl)-6-[5-(trifluoromethyl)-2-thienyl]imidazo[4,5-b]pyridin-2-one]
 | 0.163 | O=C(Cn1c(=O)[nH]c2ncc(-c3cccc(C(F)(F)F)c3)cc21)N1CC(CCF)C1 [Example 536, 1-[2-[3-(2-Fluoroethyl)azetidin-1-yl]-2-oxo-ethyl]-6-[3-(trifluoromethyl)phenyl]-3H-imidazo[4,5-b]pyridin-2-one]
 | 0.273 | CCC(=O)Cn1c(=O)[nH]c2ncc(-c3cccc(F)n3)cc21 [Example 537, 6-(6-Fluoro-2-pyridyl)-1-(2-oxobutyl)-3H-imidazo[4,5-b]pyridin-2-one]
 | 0.24 | O=C(Cn1c(=O)[nH]c2ncc(-c3ccc(OCCF)c(C(F)(F)F)c3)cc21)N1CCC1 [Example 538, 1-[2-(Azetidin-1-yl)-2-oxo-ethyl]-6-[4-(2-fluoroethoxy)-3-(trifluoromethyl)phenyl]-3H-imidazo[4,5-b]pyridin-2-one]
 | 0.333 | O=C(Cn1c(=O)[nH]c2ncc(-c3cc(OCCF)cc(C(F)(F)F)c3)cc21)N1CCC1 [Example 539, 1-[2-(Azetidin-1-yl)-2-oxo-ethyl]-6-[3-(2-fluoroethoxy)-5-(trifluoromethyl)phenyl]-3H-imidazo[4,5-b]pyridin-2-one]
 | 0.022 | Cn1c(=O)n(Cc2cccnn2)c2cc(-c3ccc(F)c(C(F)F)c3)cnc21 [Example 541, 6-[3-(Difluoromethyl)-4-fluoro-phenyl]-3-methyl-1-(pyridazin-3-ylmethyl)imidazo[4,5-b]pyridin-2-one]

Reference: patent US11759455B2, “Substituted 1H-imidazo[4,5-b]pyridin-2(3H)-ones and their use as GLUN2B receptor modulators” (JANSSEN PHARMACEUTICA NV, priority 2016, dated 2023)
